Source: patent US4312874A, “Antibacterial compounds, processes for their preparation and compositions containing them” (Beecham Group Limited, priority 1979, dated 1982)
Converted amounts (≈) assume the structure as drawn.

How the values were obtained:
[1] = tested on: Erysipelothrix rhusiopathiae NCTC 8163; assay: MIC by agar dilution, veterinary bacteria; settings: NCTC8163, 24 h
[2] = tested on: Sarcina lutea 8340; assay: MIC by serial dilution in nutrient agar with 5% chocolated horse blood; assay type: cell-based; settings: Micrococcus luteus, Table 1, read-out: MIC
[3] = tested on: Corynebacterium xerosis 9755; assay: as above; assay type: cell-based; settings: Table 1
[4] = tested on: Pasteurella multocida 1633; assay: as above; assay type: cell-based; settings: Table 1
[5] = tested on: Past. haemolytica PA5; assay: MIC by agar dilution, veterinary bacteria; settings: Mannheimia haemolytica, PA5, 24 h
[6] = tested on: M. suipneumoniae ATCC 25095; assay: in vitro MIC by serial dilution in Friis modified agarose medium; assay type: cell-based; settings: Mesomycoplasma hyopneumoniae, ATCC25095; Table 3
[7] = tested on: M. suipneumoniae PW/C/210; assay: as above; assay type: cell-based; settings: Mesomycoplasma hyopneumoniae; Table 3
[8] = tested on: Staph. aureus Russell; assay: MIC by serial dilution in nutrient agar with 5% chocolated horse blood; assay type: cell-based; settings: Staphylococcus aureus; Table 1
[9] = tested on: E. coli E1; assay: MIC by agar dilution, veterinary bacteria; settings: Escherichia coli, E1, 24 h
[10] = tested on: M. suipneumoniae JF 435; assay: in vitro MIC by serial dilution in Friis modified agarose medium; assay type: cell-based; settings: Mesomycoplasma hyopneumoniae, JF435; Table 3
[11] = tested on: M. pneumoniae ATCC 15492; assay: as above; assay type: cell-based; settings: Mycoplasmoides pneumoniae, ATCC15492; Table 3
[12] = tested on: M. bovigenitalium ATCC 14173; assay: as above; assay type: cell-based; settings: Table 3; read-out: MIC
[13] = tested on: K. aerogenes A; assay: MIC by serial dilution in nutrient agar with 5% chocolated horse blood; assay type: cell-based; settings: Klebsiella aerogenes; Table 1; read-out: MIC
[14] = tested on: M. siupneumoniae HK(2); assay: in vitro MIC by serial dilution in Friis modified agarose medium; assay type: cell-based; settings: Table 3
[15] = tested on: Strep. pneumoniae CN33; assay: MIC by serial dilution in nutrient agar with 5% chocolated horse blood; assay type: cell-based; settings: Streptococcus pneumoniae, Table 1
[16] = tested on: M.suipneumoniae NB12; assay: in vitro MIC by serial dilution in Friis modified agarose medium; assay type: cell-based; settings: Mesomycoplasma hyopneumoniae, Table 3
[17] = tested on: Strep. faecalis; assay: MIC by serial dilution in nutrient agar with 5% chocolated horse blood; assay type: cell-based; settings: Enterococcus faecalis; Table 1; read-out: MIC
[18] = tested on: Staph. aureus Oxford; assay: as above; assay type: cell-based; settings: Staphylococcus aureus; Table 1
[19] = tested on: Past. multocida PA1; assay: MIC by agar dilution, veterinary bacteria; settings: Pasteurella multocida, PA1, 24 h
[20] = tested on: M. suipneumoniae MS 16; assay: in vitro MIC by serial dilution in Friis modified agarose medium; assay type: cell-based; settings: Mesomycoplasma hyopneumoniae, MS16; Table 3
[21] = tested on: Bord. bronchiseptica B08; assay: MIC by agar dilution, veterinary bacteria; settings: Bordetella bronchiseptica, B08, 24 h
[22] = Serum binding by ultrafiltration; assay type: in vitro ADME; settings: pig, 8 mcg/ml, read-out: % Bound to Pig Serum (converted)
Experimental: Serum binding was assessed by ultrafiltration of procine serum containing compounds at 8 mcg/ml, and through an Amicon CF50A ultrafiltration cone. Separation of ultrafiltrate was achieved by centrifugation. Unbound concentrations of compound were measured in the ultrafiltrate by microbiological assay (B. subtilis ATCC 6633) against standards prepared in saline.

[23] = tested on: Bacillus subtilis 6633; assay: MIC by serial dilution in nutrient agar with 5% chocolated horse blood; assay type: cell-based; settings: Table 1
[24] = tested on: Strep. uberis SPU1; assay: MIC by agar dilution, veterinary bacteria; settings: Streptococcus uberis, SPU1, 24 h
[25] = tested on: Past. multocida PA2; assay: MIC by agar dilution, veterinary bacteria; settings: Pasteurella multocida, PA2, 24 h
[26] = tested on: M. dispar NCTC 10125; assay: in vitro MIC by serial dilution in Friis modified agarose medium; assay type: cell-based; settings: Table 3; read-out: MIC
[27] = tested on: Neisseria catarrhalis 1502; assay: MIC by serial dilution in nutrient agar with 5% chocolated horse blood; assay type: cell-based; settings: Table 1, read-out: MIC
[28] = tested on: P. mirabilis 889; assay: as above; assay type: cell-based; settings: Proteus mirabilis, Table 1, read-out: MIC
[29] = tested on: Staph. aureus 152 (pen sens); assay: MIC by agar dilution, veterinary bacteria; settings: Staphylococcus aureus, 24 h
[30] = tested on: Staph. aureus W2827; assay: MIC by serial dilution in nutrient agar with 5% chocolated horse blood; assay type: cell-based; settings: Staphylococcus aureus, Table 1
[31] = tested on: Strep. dysgalactiae SPD1; assay: MIC by agar dilution, veterinary bacteria; settings: Streptococcus dysgalactiae, SPD1, 24 h
[32] = tested on: Strep. suis (group D) SPS11; assay: MIC by agar dilution, veterinary bacteria; settings: Streptococcus suis, 24 h
[33] = tested on: M. hyorhinis ATCC 23234; assay: in vitro MIC by serial dilution in Friis modified agarose medium; assay type: cell-based; settings: Mesomycoplasma hyorhinis, ATCC23234; Table 3
[34] = tested on: M. suipneumoniae J2206/183b; assay: as above; assay type: cell-based; settings: Mesomycoplasma hyopneumoniae, Table 3
[35] = tested on: E. coli NCTC 10418; assay: MIC by serial dilution in nutrient agar with 5% chocolated horse blood; assay type: cell-based; settings: Escherichia coli, NCTC10418; Table 1; read-out: MIC
[36] = tested on: Haemophilus influenzae Q1; assay: as above; assay type: cell-based; settings: Table 1
[37] = tested on: M. gallisepticum S6; assay: in vitro MIC by serial dilution in Friis modified agarose medium; assay type: cell-based; settings: Mycoplasmoides gallisepticum, Table 3
[38] = tested on: Strep. pyogenes B 2788; assay: MIC by serial dilution in nutrient agar with 5% chocolated horse blood; assay type: cell-based; settings: Streptococcus pyogenes, B2788; Table 1
[39] = tested on: M. suipneumoniae NCTC 10110; assay: in vitro MIC by serial dilution in Friis modified agarose medium; assay type: cell-based; settings: Mesomycoplasma hyopneumoniae, NCTC10110; Table 3
[40] = tested on: Haemophilus influenzae Wy21; assay: MIC by serial dilution in nutrient agar with 5% chocolated horse blood; assay type: cell-based; settings: Table 1, read-out: MIC
[41] = tested on: Strep. pyogenes C 2761; assay: as above; assay type: cell-based; settings: Streptococcus pyogenes, C2761; Table 1
[42] = tested on: M. suipneumoniae LABER; assay: in vitro MIC by serial dilution in Friis modified agarose medium; assay type: cell-based; settings: Mesomycoplasma hyopneumoniae; Table 3

CC(=O)C=C(C)CC1OCC(CC2OC2C(C)C(C)O)C(O)C1O [Example 1, 1-[3R,4R-Dihydroxy-5S-(2S,3S-epoxy-5S-hydroxy-4S-methylhexyl)-2,3,5,6-tetrahydropyran-2-S-yl]-2-methylpent-2E-en-4-one]
MIC [1]: > 80 µg/mL | MIC [2]: > 100 µg/mL | MIC [3]: > 100 µg/mL | MIC [4]: 5 µg/mL (≈ 14.6 µM) | MIC [5]: 10 µg/mL (≈ 29.2 µM) | MIC [6]: 10 µg/mL (≈ 29.2 µM) | MIC [7]: 10 µg/mL (≈ 29.2 µM) | MIC [8]: 5 µg/mL (≈ 14.6 µM) | MIC [9]: > 80 µg/mL | MIC [10]: 10 µg/mL (≈ 29.2 µM) | MIC [11]: > 10 µg/mL | MIC [12]: 0.5 µg/mL (≈ 1.46 µM) | MIC [13]: > 100 µg/mL | MIC [14]: > 10 µg/mL | MIC [15]: 25 µg/mL (≈ 73 µM) | MIC [16]: > 10 µg/mL | MIC [17]: > 100 µg/mL | MIC [18]: 1 µg/mL (≈ 2.92 µM) | MIC [19]: 5 µg/mL (≈ 14.6 µM) | MIC [20]: 10 µg/mL (≈ 29.2 µM) | MIC [21]: > 80 µg/mL | fraction unbound [22]: 0.852 | MIC [23]: 5 µg/mL (≈ 14.6 µM) | MIC [24]: 20 µg/mL (≈ 58.4 µM) | MIC [25]: 5 µg/mL (≈ 14.6 µM) | MIC [26]: 2.5 µg/mL (≈ 7.3 µM) | MIC [27]: 0.2 µg/mL (≈ 0.584 µM) | MIC [28]: 50 µg/mL (≈ 146 µM) | MIC [29]: 10 µg/mL (≈ 29.2 µM) | MIC [30]: > 100 µg/mL | MIC [31]: 80 µg/mL (≈ 234 µM) | MIC [32]: > 80 µg/mL | MIC [33]: 10 µg/mL (≈ 29.2 µM) | MIC [34]: > 10 µg/mL | MIC [35]: > 100 µg/mL | MIC [36]: 0.5 µg/mL (≈ 1.46 µM) | MIC [37]: > 10 µg/mL | MIC [38]: 50 µg/mL (≈ 146 µM) | MIC [39]: > 10 µg/mL | MIC [40]: 1 µg/mL (≈ 2.92 µM) | MIC [41]: 100 µg/mL (≈ 292 µM) | MIC [42]: 5 µg/mL (≈ 14.6 µM)
